From patent publication US9321721B2, “Kinase inhibitors” (Allergan, Inc., priority 2013, dated 2016)
“Also recorded” adds a separate entry of the source.

Biological target: VEGFR2 (purified cytoplasmic domain KDR protein) (Homo sapiens (Human), UniProt P35968)
Assay: VEGFR2 Kinase Assay (biochemical KDR kinase assay, ELISA readout)
Conditions: for IC50: 2.7 μM ATP, poly-Glu-Tyr (4:1) substrate, 15 minute incubation at 30° C.; for VEGFR2 potency as shown in this assay (in words): qualitative ranking based on the Table 2 data
Experimental: VEGFR2 kinase potency of select analogs was determined by the following assay:
Biochemical KDR kinase assays were performed in 96 well microtiter plates that were coated overnight with 75 μg/well of poly-Glu-Tyr (4:1) in 10 mM Phosphate Buffered Saline (PBS), pH 7.4. The coated plates were washed with 2 mls per well PBS+0.05% Tween-20 (PBS-T), blocked by incubation with PBS containing 1% BSA, then washed with 2 mls per well PBS-T prior to starting the reaction. Reactions were carried out in 100 μL reaction volumes containing 2.7 μM ATP in kinase buffer (50 mM Hepes buffer pH 7.4, 20 mM MgCl2, 0.1 mM MnCl2 and 0.2 mM Na3VO4). Test compounds were reconstituted in 100% DMSO and added to the reaction to give a final DMSO concentration of 5%. Reactions were initiated by the addition 20 ul per well of kinase buffer containing 200-300 ng purified cytoplasmic domain KDR protein (BPS Bioscience, San Diego, Calif.). Following a 15 minute incubation at 30° C., the reactions were washed 2 mls per well PBS-T. 100 μl of a monoclonal anti-phosphotyrosine antibody-peroxidase conjugate diluted 1:10,000 in PBS-T was added to the wells for 30 minutes. Following a 2 mls per well wash with PBS-Tween-20, 100 μl of O-Phenylenediamine Dihydrochloride in phosphate-citrate buffer, containing urea hydrogen peroxide, was added to the wells for 7-10 minutes as a colorimetric substrate for the peroxidase. The reaction was terminated by the addition of 100 μl of 2.5N H2SO4 to each well and read using a microplate ELISA reader set at 492 nm. IC50 values for compound inhibition were calculated directly from graphs of optical density (arbitrary units) versus compound concentration following subtraction of blank values.

Chain of VEGFR2 (purified cytoplasmic domain KDR protein) (P35968 786-1356): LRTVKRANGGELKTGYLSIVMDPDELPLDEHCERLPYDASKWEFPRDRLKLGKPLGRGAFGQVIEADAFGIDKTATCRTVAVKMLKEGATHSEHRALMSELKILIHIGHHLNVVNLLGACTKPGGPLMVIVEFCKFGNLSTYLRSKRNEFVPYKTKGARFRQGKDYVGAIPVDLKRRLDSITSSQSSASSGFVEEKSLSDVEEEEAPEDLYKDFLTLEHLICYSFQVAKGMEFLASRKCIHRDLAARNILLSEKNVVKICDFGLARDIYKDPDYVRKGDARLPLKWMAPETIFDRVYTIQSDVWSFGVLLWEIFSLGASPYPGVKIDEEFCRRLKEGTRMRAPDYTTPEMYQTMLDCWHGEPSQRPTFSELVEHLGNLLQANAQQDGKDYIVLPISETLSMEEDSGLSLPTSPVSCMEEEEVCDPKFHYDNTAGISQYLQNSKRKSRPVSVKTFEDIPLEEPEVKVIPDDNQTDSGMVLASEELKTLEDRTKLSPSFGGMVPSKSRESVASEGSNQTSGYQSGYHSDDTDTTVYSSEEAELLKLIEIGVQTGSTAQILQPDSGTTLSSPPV

**Q.** What does the source list for `COc1cccc(/C(=C/C(N)=O)c2ccc(NC(=O)Nc3cc(C(F)(F)F)ccc3F)cc2)c1` [Example 2, (2E)-3-{4-[({[2-fluoro-5-(trifluoromethyl)phenyl]amino}carbonyl)amino]phenyl}-3-(3-methoxyphenyl)acrylamide]?
**A.** IC50: 945 nM; VEGFR2 potency as shown in this assay (in words): excellent VEGFR2 potency

**Q.** Which IC50 does the source give for `NC(=O)/C=C(/c1ccccc1)c1cccc(NC(=O)Nc2cc(C(F)(F)F)ccc2F)c1` [Example 4, (2Z)-3-{3-[({[2-fluoro-5-(trifluoromethyl)phenyl]amino}carbonyl)amino]phenyl}-3-phenylacrylamide] here?
**A.** Its IC50 is greater than 10000 nM.

**Q.** What does the source list for `NC(=O)/C=C\c1ccc(NC(=O)Nc2cc(C(F)(F)F)ccc2F)cc1` [Example 7, (2Z)-3-{4-[({[2-fluoro-5-(trifluoromethyl)phenyl]amino}carbonyl)amino]phenyl}acrylamide]?
**A.** IC50: 2790 nM; VEGFR2 potency as shown in this assay (in words): excellent VEGFR2 potency

**Q.** With `NC(=O)/C=C/c1ccc(NC(=O)Nc2cc(C(F)(F)F)ccc2F)cc1` [Example 6, (2E)-3-{4-[({[2-fluoro-5-(trifluoromethyl)phenyl]amino}carbonyl)amino]phenyl}acrylamide] as the compound, how does the IC50 read?
**A.** Its IC50 is greater than 10000 nM.

**Q.** Which IC50 does the source give for `NC(=O)/C=C(/c1ccccc1)c1ccc(NC(=O)Nc2cc(C(F)(F)F)ccc2F)cc1` [Example 1, (2Z)-3-{4-[({[2-fluoro-5-(trifluoromethyl)phenyl]amino}carbonyl)amino]phenyl}-3-phenylacrylamide] here?
**A.** The IC50 was 626 nM.

**Q.** And the “VEGFR2 potency as shown in this assay (in words)” value?
**A.** The value was “excellent VEGFR2 potency”.

**Q.** How did the IC50 turn out when `NC(=O)/C=C/c1cccc(NC(=O)Nc2cc(C(F)(F)F)ccc2F)c1` [Example 5, (2E)-3-{3-[({[2-fluoro-5-(trifluoromethyl)phenyl]amino}carbonyl)amino]phenyl}acrylamide] was run?
**A.** The IC50 was greater than 10000 nM.

**Q.** Which results are given for `COc1ccc(/C(=C/C(N)=O)c2ccc(NC(=O)Nc3cc(C(F)(F)F)ccc3F)cc2)cc1` [Example 3, (2E)-3-{4-[({[2-fluoro-5-(trifluoromethyl)phenyl]amino}carbonyl)amino]phenyl}-3-(4-methoxyphenyl)acrylamide]?
**A.** IC50: 457 nM; VEGFR2 potency as shown in this assay (in words): excellent VEGFR2 potency; also recorded: best VEGFR2 potency
